Results published in ChEMBL document CHEMBL2086310, “Alkaloids from Pachysandra terminalis inhibit breast cancer invasion and have potential for development as antimetastasis therapeutic agents” (J Nat Prod, 2012).
Activity calls are given as the source filed them. The rule behind the calls is not given here.

The molecules below were run on MDA-MB-231 (assay: Inhibition of epithelial growth factor-induced cell migration of human MDA-MB-231 cells pre-incubated for 24 hrs by cell invasion assay).
Assay type: functional, cell-based
In the case of `C/C=C1/C(=O)C[C@H]2[C@@H]3CC[C@H]4C[C@@H](N(C)C)CC[C@]4(C)[C@H]3CC[C@]12C`, the IC50 is reported as 870 nM. With `C[C@@H]([C@H]1CC[C@H]2[C@@H]3CC[C@H]4C[C@@H](NC(=O)c5cccnc5)CC[C@]4(C)[C@H]3CC[C@]12C)N(C)C` [EPIPACHYSAMINE B] the IC50 was 350 nM. Work on `CC(C)=CC(=O)N[C@H]1CC[C@@]2(C)[C@@H](CC[C@@H]3[C@@H]2CC[C@]2(C)[C@@H]([C@H](C)N(C)C)CC[C@@H]32)C1` [EPIPACHYSAMINE E] yielded an IC50 of 410 nM. For `O=c1cc(N2CCOCC2)oc2c(-c3ccccc3)cccc12` [LY-294002], the IC50 was 380 nM. `CC(C)[C@@H]1CN([C@H]2CC[C@@]3(C)[C@@H](CC[C@@H]4[C@@H]3CC[C@]3(C)[C@@H]([C@H](C)N(C)C)CC[C@@H]43)C2=O)C1=O` [PACHYSTERMINE A] showed an IC50 of 320 nM. Molecule `CC(C)[C@@H]1CN([C@H]2CC[C@@]3(C)[C@@H](CC[C@@H]4[C@@H]3CC[C@]3(C)[C@@H]([C@H](C)N(C)C)CC[C@@H]43)[C@H]2O)C1=O` [PACHYSTERMINE B] has an IC50 of 190 nM. `C[C@@H]([C@H]1CC[C@H]2[C@@H]3CC[C@H]4[C@H](O)[C@@H](O)CC[C@]4(C)[C@H]3CC[C@]12C)N(C)C` [TERMINALINE] was tested, and the IC50 was 360 nM. With `CC(C)[C@H]1CN([C@H]2CC[C@@]3(C)[C@@H](CC[C@@H]4[C@@H]3CC[C@]3(C)[C@@H]([C@H](C)N(C)C)[C@@H](O)C[C@@H]43)C2=O)C1=O` [TERMINAMINE A] the IC50 was 180 nM. For `CC(=O)O[C@@H]1C[C@]2(C)[C@@H]([C@H](C)N(C)C)[C@@H](O)C[C@H]2[C@@H]2CC[C@H]3[C@@H](O)[C@@H](N4C[C@H](C(C)C)C4=O)C[C@@H](OC(C)=O)[C@]3(C)[C@H]21` [TERMINAMINE B], the IC50 was 200 nM. `CC(=O)O[C@@H]1C[C@H](N2C[C@H](C(C)C)C2=O)[C@H](O)[C@@H]2CC[C@@H]3[C@H]([C@H](OC(=O)CC(C)C)C[C@]4(C)[C@@H]([C@H](C)N(C)C)[C@@H](O)C[C@@H]34)[C@@]12C` [TERMINAMINE C] showed an IC50 of 80 nM. `CC(C)=C1CN([C@@H]2CC[C@@]3(C)[C@@H](CC[C@@H]4[C@@H]3CC[C@]3(C)[C@@H]([C@H](C)N(C)C)[C@@H](O)C[C@@H]43)[C@H]2O)C1=O` [TERMINAMINE D] gave an IC50 of 200 nM. In the case of `CC(C)=C1CN([C@@H]2CC[C@@]3(C)[C@@H](CC[C@@H]4[C@@H]3CC[C@]3(C)[C@@H]([C@H](C)N(C)C)CC[C@@H]43)[C@H]2O)C1=O` [TERMINAMINE E], the IC50 is reported as 70 nM. `C/C=C1\C(=O)C[C@H]2[C@@H]3CC[C@H]4C[C@@H](N(C)C)CC[C@]4(C)[C@H]3CC[C@]12C` [Z-salignone] showed an IC50 of 1740 nM.

The molecules below were run on MDA-MB-231 (assay: Inhibition of epithelial growth factor-induced cell migration of human MDA-MB-231 cells at 10 uM pre-incubated for 24 hrs by cell invasion assay).
Assay type: functional, cell-based
For `CC(=O)[C@H]1CC[C@H]2[C@@H]3CC[C@H]4C[C@H](N(C)C(=O)C=C(C)C)CC[C@]4(C)[C@H]3CC[C@]12C`, the inhibition was “inactive”. For `CC(=O)[C@H]1CC[C@H]2[C@@H]3CC[C@H]4C[C@H](N(C)C(=O)c5ccccc5)CC[C@]4(C)[C@H]3CC[C@]12C`, the inhibition was “inactive”. `CC(=O)[C@H]1CC[C@H]2[C@@H]3CC[C@H]4C[C@]5(CC[C@]4(C)[C@H]3CC[C@]12C)c1ccccc1C(=O)N5C` was tested, and the inhibition was “inactive”.

The molecules below were run against Integrin beta-1 (Homo sapiens) (UniProt P05556) (assay: Inhibition of integrin beta1 phosphorylation in human […] cells at 1 to 10 uM incubated for 24 hrs by Western blot).
Chain of Integrin beta-1 (Homo sapiens) (P05556 whole entry): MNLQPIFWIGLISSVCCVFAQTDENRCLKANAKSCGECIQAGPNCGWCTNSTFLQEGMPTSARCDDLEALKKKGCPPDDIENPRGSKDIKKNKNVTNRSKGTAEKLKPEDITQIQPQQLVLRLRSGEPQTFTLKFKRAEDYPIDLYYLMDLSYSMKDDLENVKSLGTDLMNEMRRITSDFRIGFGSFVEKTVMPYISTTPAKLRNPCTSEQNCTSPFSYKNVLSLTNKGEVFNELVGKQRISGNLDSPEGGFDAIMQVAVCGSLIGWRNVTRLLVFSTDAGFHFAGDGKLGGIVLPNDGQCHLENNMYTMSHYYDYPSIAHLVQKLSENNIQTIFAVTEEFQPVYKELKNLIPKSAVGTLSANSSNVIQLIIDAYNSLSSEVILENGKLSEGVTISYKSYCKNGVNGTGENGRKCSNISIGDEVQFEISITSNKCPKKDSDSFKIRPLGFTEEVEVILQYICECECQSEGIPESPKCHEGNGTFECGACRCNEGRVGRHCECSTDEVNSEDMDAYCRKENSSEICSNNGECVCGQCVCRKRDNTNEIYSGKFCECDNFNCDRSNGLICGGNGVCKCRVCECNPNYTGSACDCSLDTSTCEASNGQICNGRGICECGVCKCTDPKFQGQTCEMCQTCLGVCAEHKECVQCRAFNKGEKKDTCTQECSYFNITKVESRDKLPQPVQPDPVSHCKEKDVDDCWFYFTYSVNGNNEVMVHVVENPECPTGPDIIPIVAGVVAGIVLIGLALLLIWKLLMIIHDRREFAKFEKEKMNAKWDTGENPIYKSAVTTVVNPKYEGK
Assay type: cell-based
`CC(C)[C@H]1CN([C@H]2CC[C@@]3(C)[C@@H](CC[C@@H]4[C@@H]3CC[C@]3(C)[C@@H]([C@H](C)N(C)C)[C@@H](O)C[C@@H]43)C2=O)C1=O` [TERMINAMINE A] was tested, and the inhibition was “Dose-dependent effect”.
